Results published in PubChem BioAssay (NCI).
Values joined by “and” are separate entries in the source; they are usually repeats but may differ in a detail not shown here. Equal entries are not always repeated.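 Where inhibition never reached the appropriate level, the endpoint shown equals the highest concentration tested. Otherwise, values were interpolated linearly from a five-concentration, 48-hour dose response in 96-well plates. GI50: concentration for 50% inhibition of growth. The concentration for full growth arrest is given as TGI.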

What was measured:
Experiment in all cases: inhibition of tumour cell growth, NCI panel, 48 h
[1] = system: TK-10 renal
[2] = system: RXF 393 renal
[3] = system: SNB-75 CNS
[4] = system: A498 renal
[5] = system: HOP-92 NSCLC
[6] = system: RPMI-8226 leukemia
[7] = system: UACC-62 melanoma
[8] = system: IGROV1 ovarian
[9] = system: MDA-MB-231 breast
[10] = system: NCI-H460 lung

SMILES | GI50 [1] | TGI [1] | GI50 [2] | TGI [2] | GI50 [3] | TGI [3] | GI50 [4] | TGI [4] | GI50 [5] | TGI [5] | GI50 [6] | TGI [6] | GI50 [7] | TGI [7] | GI50 [8] | TGI [8] | GI50 [9] | TGI [9] | GI50 [10] | TGI [10]
C=C1C(=O)O[C@H]2[C@H]1CC/C(COC(=O)NCc1ccc(Cn3c(=O)sn(CCCl)c3=O)cc1)=C\CC[C@@]1(C)O[C@@H]21 | 1.77 µM | 3.43 µM | 1.18 µM | 2.64 µM | 7.65 µM | 21 µM | 11.5 µM | 23.8 µM | 1.5 µM | 3.22 µM | 2.37 µM | 6.25 µM | 1.86 µM | 3.95 µM | 2.5 µM | 6.79 µM | 1.89 µM | 3.68 µM | 15 µM | 32.5 µM
Cc1ccc(Nc2n[nH]c(=S)s2)cc1C |  | > 100 µM |  | > 100 µM |  | > 100 µM |  | > 100 µM |  | > 100 µM |  | > 100 µM |  | > 100 µM |  | > 100 µM |  | > 100 µM |  | > 100 µM
CCN(CC)CCCC(C)Nc1ccnc2cc(Oc3ccccc3)ccc12 (centres undefined) | 2.58 µM and 3.23 µM | 8.34 µM and 10.3 µM | 1.65 µM and 3.53 µM | 5.82 µM and 11.2 µM | 2.04 µM and 10.9 µM | 15.1 µM and 25.4 µM |  | 7.85 µM and 28.5 µM | 5.62 µM and 3.78 µM | 20.5 µM and 27 µM | 5.02 µM and 5.36 µM | 13.9 µM and 28.2 µM | 4.16 µM and 3.24 µM | 11.2 µM and 12.3 µM | 3.55 µM and 14.1 µM | 16.9 µM and > 100 µM | 2.05 µM and 3.47 µM | 8.41 µM and 21.9 µM | 9.21 µM and 12.6 µM | 25.9 µM and 78.7 µM
C=C1C(=O)O[C@H]2[C@H]1CC/C(COC(=O)NCc1cn(C)c3ccccc13)=C\CC[C@@]1(C)O[C@@H]21 | 1.8 µM | 3.43 µM | 1.26 µM | 2.7 µM | 4.16 µM | 17.6 µM | 3.21 µM | 12.1 µM | 1.46 µM | 3.05 µM | 0.696 µM | 4.22 µM | 1.69 µM | 4.33 µM | 1.58 µM | 3.31 µM | 1.68 µM | 3.54 µM | 2.77 µM | 10.1 µM
CN[C@@H](C)C(=O)N[C@H](C(=O)N1CCC[C@H]1C(=O)Nc1snnc1-c1ccccc1)C1CCCCC1 | > 59.9 µM | > 94.9 µM | 5.18 µM | 40.1 µM | 25.4 µM | > 94.4 µM | 19.5 µM | 57.3 µM | 3.06 µM | 27.7 µM | 43.9 µM | > 100 µM | 16.2 µM | 34.2 µM | 76.9 µM | > 100 µM | 0.778 µM | 21.4 µM | 58.1 µM | > 100 µM
C=C1CCC2C3(C)COC(c4ccc(N(C)C)cc4)OC3CCC2(C)C1C/C=C1/C(=O)OCC1O (centres undefined) | 8 µM | 21 µM | 1.97 µM | 4.06 µM | 1.94 µM | 7.97 µM | 6.25 µM | 17.1 µM | 6.4 µM | 21.7 µM | 1.23 µM | 3.8 µM | 4.26 µM | 16.9 µM | 2.44 µM | 6.02 µM | 7.19 µM | 20.8 µM | 4.1 µM | 16.5 µM
Cc1c(C(N)=O)sc2c1C(=O)N(Cc1ccccc1)C1=NN=C(c3ccc(Cl)cc3)CN12 | 6.52 µM | 18.9 µM | 2.16 µM | 7.71 µM | 10.6 µM | 23.7 µM | 2.88 µM | 12.7 µM | 3.89 µM | 14.7 µM | 4.56 µM | > 100 µM | 2.23 µM | 5.9 µM | 3.13 µM | 22.3 µM | 3.54 µM | 16 µM | 2.13 µM | 7.69 µM
CC1CCC(NC(=O)N(CCCl)N=O)CC1 (centres undefined) | 45.2 µM | 125 µM | 16.7 µM | 33.5 µM and 72.9 µM | 27.3 µM | 74.4 µM and 66.7 µM |  | 124 µM |  | 64.2 µM and 68.8 µM | 12.5 µM | 37 µM and 103 µM | 7.87 µM | 29.7 µM and 53.5 µM | 22.6 µM | 80.7 µM and 89 µM |  | 91.2 µM | 28 µM | 100 µM
CC(C)N(Cc1ccccc1)c1c(S)ssc1=S | 5.08 µM | > 100 µM | 2.17 µM | 10.1 µM | 2.98 µM | 26.9 µM | 0.723 µM | 4.12 µM | 0.342 µM | 3.79 µM | 0.772 µM | 6.27 µM | 0.452 µM | 15 µM |  |  | 1.77 µM | 5.49 µM | 2.33 µM | 10.7 µM
